Like-named read-outs stand apart in the source and are kept apart here.
Assays:
Format in all cases: cell-based
alpha2A receptor = biological target: T1, alpha2A receptor (Homo sapiens, UniProt P08913); test: RSAT (Receptor Selection and Amplification Technology) assay, alpha 2A; conditions: for EC50 / Alpha 2A EC50: RSAT, transfected NIH-3T3 cells, "not active" = not active at concentrations less than 10 micromolar; for Alpha 2A IA: intrinsic activity: ratio of maximal effect of drug to maximal effect of standard full agonist brimonidine (UK14304)
T1 construct: expressed in transfected cells; host or cells: NIH-3T3 cells
T1 sequence (P08913 1-465): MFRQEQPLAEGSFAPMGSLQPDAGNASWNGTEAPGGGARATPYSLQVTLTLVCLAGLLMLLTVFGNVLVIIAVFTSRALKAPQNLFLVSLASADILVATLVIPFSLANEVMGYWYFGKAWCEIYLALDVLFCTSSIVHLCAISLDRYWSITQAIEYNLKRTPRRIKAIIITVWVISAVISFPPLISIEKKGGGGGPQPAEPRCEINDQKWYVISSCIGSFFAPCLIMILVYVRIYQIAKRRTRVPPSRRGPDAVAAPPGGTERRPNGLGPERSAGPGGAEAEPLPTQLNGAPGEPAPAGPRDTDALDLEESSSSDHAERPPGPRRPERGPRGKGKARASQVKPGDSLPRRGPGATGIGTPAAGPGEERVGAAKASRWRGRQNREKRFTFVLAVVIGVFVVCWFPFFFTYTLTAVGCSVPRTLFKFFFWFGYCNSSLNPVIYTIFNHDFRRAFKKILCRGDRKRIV
Text: (§1) The aryl fluoroethyl ureas of the invention are agonists of alpha2 adrenergic receptors. […] Al, 1995, Pharmacol. Toxicol. 76, pp. 308-311 (incorporated herein by reference) and is also described below. Another reference pertinent to this assay is Conklin et al. (1993) Nature 363:274-6, Receptor Selection and Amplification Technology (RSAT) assay, also incorporated herein by reference.
(§2) The RSAT assay measures a receptor-mediated loss of contact inhibition that results in selective proliferation of receptor-containing cells in a mixed population of confluent cells. The increase in cell number is assessed with an appropriate transfected marker gene such as ∃-galactosidase, the activity of which can be easily measured in a 96-well format. Receptors that activate the G protein, Gq, elicit this response. Alpha 2 receptors, which normally couple to Gi, activate the RSAT response when coexpressed with a hybrid Gq protein that has a Gi receptor recognition domain, called Gq/i5.
(§3) NIH-3T3 cells are plated at a density of 2×10^6 cells in 15 cm dishes and maintained in Dulbecco's modified Eagle's medium supplemented with 10% calf serum. One day later, cells are cotransfected by calcium phosphate precipitation with mammalian expression plasmids encoding p-SV-β-galactosidase (5-10 μg), receptor (1-2 μg) and G protein (1-2 μg). 40 μg salmon sperm DNA may also be included in the transfection mixture. Fresh media is added on the following day and 1-2 days later, cells are harvested and frozen in 50 assay aliquots. Cells are thawed and 100 μl added to 100 μl aliquots of various concentrations of drugs in triplicate in 96-well dishes. Incubations continue 72-96 hr at 37° C. After washing with phosphate-buffered saline, ∃-galactosidase enzyme activity is determined by adding 200 μl of the chromogenic substrate (consisting of 3.5 mM o-nitrophenyl-β-D-galactopyranoside and 0.5% nonidet P-40 in phosphate buffered saline), incubating overnight at 30° C. and measuring optical density at 420 nm. The absorbance is a measure of enzyme activity, which depends on cell number and reflects a receptor-mediated cell proliferation. The efficacy or intrinsic activity is calculated as a ratio of the maximal effect of the drug to the maximal effect of a standard full agonist for each receptor subtype. Brimonidine, also called UK14304, the chemical structure of which is shown below, is used as the standard agonist for the alpha2A, alpha2B and alpha2C receptors.
(§4) The results of the RSAT assay with several exemplary compounds of the invention are disclosed in Table 1 below together with the chemical structures of these compounds. “Not active” means the compounds are not active at concentrations less than 10 micromolar.

alpha2B receptor = biological target: T2, alpha2B receptor (Homo sapiens, UniProt P18089); test: RSAT (Receptor Selection and Amplification Technology) assay, alpha 2B; conditions: for Alpha 2B IA: intrinsic activity: ratio of maximal effect of drug to maximal effect of standard full agonist brimonidine (UK14304)
T2 construct: expressed in transfected cells; host or cells: NIH-3T3 cells
T2 sequence (P18089 1-450): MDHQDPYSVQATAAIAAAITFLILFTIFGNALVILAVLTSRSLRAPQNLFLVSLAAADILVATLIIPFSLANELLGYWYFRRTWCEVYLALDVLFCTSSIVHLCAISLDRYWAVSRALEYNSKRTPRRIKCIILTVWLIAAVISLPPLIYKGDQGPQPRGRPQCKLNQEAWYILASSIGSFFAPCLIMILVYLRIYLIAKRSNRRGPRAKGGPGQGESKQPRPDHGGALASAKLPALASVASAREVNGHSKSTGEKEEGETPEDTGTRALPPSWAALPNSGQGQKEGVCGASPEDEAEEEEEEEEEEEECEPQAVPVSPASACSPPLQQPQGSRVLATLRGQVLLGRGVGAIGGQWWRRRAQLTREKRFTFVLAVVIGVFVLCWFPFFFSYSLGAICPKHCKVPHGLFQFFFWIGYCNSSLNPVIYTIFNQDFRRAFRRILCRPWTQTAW
Description: as §2, §3

alpha2C receptor = biological target: T3, alpha2C receptor (Homo sapiens, UniProt P18825); test: RSAT (Receptor Selection and Amplification Technology) assay, alpha 2C; conditions: for EC50 / Alpha 2C EC50: RSAT, transfected NIH-3T3 cells, "not active" = not active at concentrations less than 10 micromolar; for Alpha 2C IA: intrinsic activity: ratio of maximal effect of drug to maximal effect of standard full agonist brimonidine (UK14304)
T3 construct: expressed in transfected cells; host or cells: NIH-3T3 cells
T3 sequence (P18825 1-462): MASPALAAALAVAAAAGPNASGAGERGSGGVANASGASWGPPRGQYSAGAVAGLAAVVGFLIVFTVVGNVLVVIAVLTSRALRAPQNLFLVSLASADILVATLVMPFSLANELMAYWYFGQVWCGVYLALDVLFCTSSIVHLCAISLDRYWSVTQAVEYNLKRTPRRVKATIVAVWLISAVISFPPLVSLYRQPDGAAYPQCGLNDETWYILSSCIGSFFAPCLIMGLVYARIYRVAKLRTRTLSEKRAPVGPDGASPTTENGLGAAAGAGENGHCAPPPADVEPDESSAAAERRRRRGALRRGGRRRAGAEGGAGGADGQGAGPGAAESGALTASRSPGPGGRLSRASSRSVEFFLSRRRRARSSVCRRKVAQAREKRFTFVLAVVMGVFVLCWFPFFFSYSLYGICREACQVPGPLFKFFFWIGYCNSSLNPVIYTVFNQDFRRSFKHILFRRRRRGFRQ
Text: as §1, §2, §3, §4

[1] = RSAT, transfected NIH-3T3 cells, "not active" = not active at concentrations less than 10 micromolar, read-out: Alpha 2B EC50

| SMILES | EC50 (alpha2A receptor) [nM] | Alpha 2A IA (alpha2A receptor) | EC50 (alpha2B receptor; [1]) [nM] | Alpha 2B IA (alpha2B receptor) | EC50 (alpha2C receptor) [nM] | Alpha 2C IA (alpha2C receptor) | Alpha 2A EC50 (alpha2A receptor) | Alpha 2C EC50 (alpha2C receptor) | EC50 (alpha2B receptor) [nM] |
| --- | --- | --- | --- | --- | --- | --- | --- | --- | --- |
| Cc1cccc(C)c1NC(=O)NCCF [Compound 23, 1-(2,6-dimethyl-phenyl)-3-(2-fluoro-ethyl)-urea] | > 2000 | 0.61 | 679 | 0.75 | > 2000 | 0.43 |  |  |  |
| CCc1ccccc1NC(=O)NCCF [Compound 24, 1-(2-ethyl-phenyl)-3-(2-fluoro-ethyl)-urea] | 2670 | 0.35 | > 2000 | 0.82 | > 2000 | 0.36 |  |  |  |
| O=C(NCCF)Nc1ccc2ccccc2c1 [Compound 25, 1-(2-fluoro-ethyl)-3-naphthalen-2-yl-urea] | 1270 | 0.58 | 1580 | 0.99 | > 2000 | 0.59 |  |  |  |
| O=C(NCCF)Nc1cccc2c1CCCC2 [Compound 28, 1-(2-fluoro-ethyl)-3-(5,6,7,8-tetrahydro-naphthalen-1-yl)-urea] | 385 | 0.43 | 157 | 0.87 | 285 | 0.74 |  |  |  |
| O=C(NCCF)Nc1cccc2ccccc12 [Compound 30, 1-(2-fluoro-ethyl)-3-naphthalen-1-yl-urea] | 1060 | 0.74 | 458 | 0.9 | > 2000 | 0.66 |  |  |  |
| O=C(NCCF)NCc1cccc2c1OCO2 [Compound 31, 1-benzo(1,3)dioxol-4-ylmethyl-3-(2-fluoro-ethyl)-urea] | > 2000 | 0.48 | 119 | 1.0 | 2020 | 1.2 |  |  |  |
| O=C(NCCF)NCc1ccccn1 [Compound 35, 1-(2-fluoro-ethyl)-3-pyridin-2-ylmethyl-urea] |  |  |  | 0.75 | 3710 | 0.38 | not active |  | 1990 |
| Cc1cccc(CNC(=O)NCCF)n1 [Compound 36, 1-(2-fluoro-ethyl)-3-(6-methyl-pyridin-2-ylmethyl)-urea] | 1760 | 0.62 | 414 | 0.78 | 1800 | 0.52 |  |  |  |
| Cc1cccnc1CNC(=O)NCCF [Compound 37, 1-(2-fluoro-ethyl)-3-(3-methyl-pyridin-2-ylmethyl)-urea] |  |  |  | 0.40 |  |  | not active | not active | 3540 |
| Cc1ccnc(CNC(=O)NCCF)c1 [Compound 39, 1-(2-Fluoro-ethyl)-3-(4-methyl-pyridin-2-ylmethyl)-urea] | 2170 | 0.36 | 343 | 0.77 | 1560 | 0.61 |  |  |  |
| Cc1ccc(CNC(=O)NCCF)o1 [Compound 40, 1-(2-fluoro-ethyl)-3-(5-methyl-furan-2-ylmethyl)-urea] |  |  |  | 0.83 | 2630 | 0.56 | not active |  | 968 |
| O=C(NCCF)NCc1ccc(O)cc1 [Compound 41, 1-(2-fluoro-ethyl)-3-(4-hydroxy-benzyl)-urea] |  |  | 293 | 0.84 | 800 | 0.69 | not active |  |  |

Further compounds by falling EC50 (alpha2B receptor; [1]), results first:

| EC50 (alpha2A receptor) [nM] | Alpha 2A IA (alpha2A receptor) | EC50 (alpha2B receptor; [1]) [nM] | Alpha 2B IA (alpha2B receptor) | EC50 (alpha2C receptor) [nM] | Alpha 2C IA (alpha2C receptor) | Alpha 2A EC50 (alpha2A receptor) | Alpha 2C EC50 (alpha2C receptor) | SMILES | EC50 (alpha2B receptor) [nM] |
| --- | --- | --- | --- | --- | --- | --- | --- | --- | --- |
|  |  | 2650 | 0.33 |  |  | not active | not active | O=C(NCCF)Nc1ccccc1Br [Compound 26, 1-(2-bromo-phenyl)-3-(2-fluoro-ethyl)-urea] |  |
| > 2000 | 0.38 | 1540 | 0.92 | > 2000 | 0.48 |  |  | Cc1ccccc1NC(=O)NCCF [Compound 22, 1-(2-fluoro-ethyl)-3-o-tolyl-urea] |  |
| 940 | 0.37 | 1220 | 0.89 | 2550 | 0.63 |  |  | O=C(NCCF)Nc1cccc2c1CCC2 [Compound 29, 1-(2-fluoro-ethyl)-3-indan-4-yl-urea] |  |
|  |  | 829 | 0.41 |  |  | not active | not active | Cc1cccc(C(NC(=O)NCCF)c2ccc(C)s2)c1 (stereo not drawn) [Compound 34, 1-(2-fluoro-ethyl)-3-[(5-methyl-thiophen-2-yl)-m-tolyl-methyl]-urea] |  |
|  |  | 592 | 0.85 | 2160 | 0.65 | not active |  | O=C(NCCF)NCc1cccc(Br)n1 [Compound 38, 1-(6-bromo-pyridin-2-ylmethyl)-3-(2-fluoro-ethyl)-urea] |  |
| > 2000 | 0.54 | 401 | 0.9 | 740 | 0.73 |  |  | Cc1cccc(NC(=O)NCCF)c1C [Compound 27, 1-(2,3-dimethyl-phenyl)-3-(2-fluoro-ethyl)-urea] |  |
|  |  | 325 | 0.58 |  |  | not active | not active | O=C(NCCF)NC(c1ccccc1)c1ccccc1 [Compound 32, 1-benzhydryl-3-(2-fluoro-ethyl)-urea] |  |
| 3520 | 0.33 | 137 | 0.81 | 1060 | 0.67 |  |  | O=C(NCCF)NCc1cccc(O)c1 [Compound 42, 1-(2-fluoro-ethyl)-3-(3-hydroxy-benzyl)-urea] |  |
| 302 | 0.63 | 66 | 0.99 | 513 | 0.64 |  |  | C[C@H](NC(=O)NCCF)c1ccccc1 [Compound 33, (−)-(S)-1-(2-Fluoro-ethyl)-3-(1-phenyl-ethyl)-urea] |  |
